The text below walks through data of publication PMC10782225 (The FASEB Journal, 2023).

One assay has as its target T1, human α7‐only‐nAChR (Homo sapiens, UniProt P36544).
T1 construct: expressed in transfected cells; host or cells: Xenopus laevis oocytes, cRNA injection
Briefly: cell-based. The following applies: SEM; for koff: read-out: k off α7‐only; for kon: read-out: k on α7‐only.

A further assay has as its target T2, human α7β2‐nAChR (Homo sapiens, UniProt P17787+P36544).
T2 construct: expressed in transfected cells; host or cells: Xenopus laevis oocytes, cRNA injection
The assay can be described thus: cell-based.

Another assay concerns the target T3, α3β4‐nAChR (Homo sapiens, UniProt P30926+P32297).
T3 construct: expressed in transfected cells; host or cells: Xenopus laevis oocytes, cRNA injection
It counts as cell-based.

Assay [1] concerns the target T4, Outer pocket mutant α7β2‐nAChR (β2[K79T,F119Q] at both α7(+)/(−)β2 subunit interfaces) (Homo sapiens, UniProt P17787+P36544, F144Q/K104T).
T4 construct: expressed in transfected cells; host or cells: Xenopus laevis oocytes, cRNA injection
Briefly: cell-based. The following applies: SEM; for koff: read-out: k off, “Outer pocket” α7β2‐nAChR; for kon: read-out: k on, “Outer pocket” α7β2‐nAChR.

Assay [2] addresses T5, Inner pocket mutant α7β2‐nAChR (β2[S108T, V111L,W120Y] at both α7(+)/(−)β2 subunit interfaces) (Homo sapiens, UniProt P17787+P36544, S133T/V136L/W145Y).
T5 construct: expressed in transfected cells; host or cells: Xenopus laevis oocytes, cRNA injection
The assay can be described thus: cell-based. The following applies: SEM; for koff: read-out: k off, “Inner pocket” α7β2‐nAChR; for kon: read-out: k on, “Inner pocket” α7β2‐nAChR.

In another assay the target is T6, α6/3β2β3‐nAChR (Homo sapiens, UniProt P17787+P32297+Q05901+Q15825).
T6 construct: expressed in transfected cells; host or cells: Xenopus laevis oocytes, cRNA injection
Format: cell-based.

Another assay deals with T7, α3β2‐nAChR (Homo sapiens, UniProt P17787+P32297).
T7 construct: expressed in transfected cells; host or cells: Xenopus laevis oocytes, cRNA injection
It counts as cell-based.

For another assay, the target named is T8, α9α10‐nAChR (Homo sapiens, UniProt Q9GZZ6+Q9UGM1).
T8 construct: expressed in transfected cells; host or cells: Xenopus laevis oocytes, cRNA injection
Briefly: cell-based.

Assay [3] addresses T9, Outer pocket mutant α7β2‐nAChR (β2[K79T,F119Q]) (Homo sapiens, UniProt P17787+P36544, F144Q/K104T).
T9 construct: expressed in transfected cells; host or cells: Xenopus laevis oocytes, cRNA injection
The assay can be described thus: ACh concentration‐response curve, TEVC, outer pocket α7β2‐nAChR. The following applies: mean ± SEM of 15–19 oocytes. It counts as cell-based.

Assay [4] has as its target T10, Inner pocket mutant α7β2‐nAChR (β2[S108T, V111L,W120Y]) (Homo sapiens, UniProt P17787+P36544, S133T/V136L/W145Y).
T10 construct: expressed in transfected cells; host or cells: Xenopus laevis oocytes, cRNA injection
The assay can be described thus: ACh concentration‐response curve, TEVC, inner pocket α7β2‐nAChR. Format: cell-based. The following applies: mean ± SEM of 15–19 oocytes.

[5] abbreviates: read-out: k off, Unaltered α7β2‐nAChR, SEM.
[6] abbreviates: read-out: k on, Unaltered α7β2‐nAChR, SEM.
The mark [7] stands for this setting: ACh 10 μM – 10 mM, half‐log steps, 3 s, 60 s apart.

SMILES strings stand for the structures. Where two headings read alike, the source gives them in different places.

T4 sequence (P17787 26-502 K104T/F144Q): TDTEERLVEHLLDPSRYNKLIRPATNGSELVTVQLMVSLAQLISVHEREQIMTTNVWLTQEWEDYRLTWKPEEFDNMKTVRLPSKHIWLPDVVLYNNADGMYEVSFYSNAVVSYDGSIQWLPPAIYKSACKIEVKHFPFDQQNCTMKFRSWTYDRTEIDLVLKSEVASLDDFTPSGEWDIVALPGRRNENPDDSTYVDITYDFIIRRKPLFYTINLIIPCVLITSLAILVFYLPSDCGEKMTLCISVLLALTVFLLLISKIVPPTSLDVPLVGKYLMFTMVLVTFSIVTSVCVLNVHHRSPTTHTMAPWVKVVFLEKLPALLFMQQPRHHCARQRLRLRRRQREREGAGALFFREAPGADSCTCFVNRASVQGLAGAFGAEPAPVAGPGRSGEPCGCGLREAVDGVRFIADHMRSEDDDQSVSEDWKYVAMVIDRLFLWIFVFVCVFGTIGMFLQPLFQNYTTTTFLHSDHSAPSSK
T4 sequence (P36544 23-502): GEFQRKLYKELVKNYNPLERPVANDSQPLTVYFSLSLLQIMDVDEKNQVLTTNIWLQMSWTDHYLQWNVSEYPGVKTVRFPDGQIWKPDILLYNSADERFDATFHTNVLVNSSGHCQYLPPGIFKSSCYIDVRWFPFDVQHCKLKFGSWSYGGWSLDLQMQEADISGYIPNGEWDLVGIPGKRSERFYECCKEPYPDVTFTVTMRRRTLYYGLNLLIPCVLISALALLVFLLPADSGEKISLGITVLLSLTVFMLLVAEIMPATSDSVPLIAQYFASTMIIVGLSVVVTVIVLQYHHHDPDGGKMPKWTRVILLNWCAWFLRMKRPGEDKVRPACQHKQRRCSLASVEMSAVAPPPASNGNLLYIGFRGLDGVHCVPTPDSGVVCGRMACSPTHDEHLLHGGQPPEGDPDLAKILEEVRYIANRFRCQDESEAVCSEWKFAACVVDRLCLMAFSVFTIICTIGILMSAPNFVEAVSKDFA
T5 sequence (P17787 26-502 S133T/V136L/W145Y): as the sequence (P17787 26-502 K104T/F144Q) above, with T79K, S108T, V111L, Q119F, W120Y counted along it
T5 sequence (P36544 23-502): as the sequence (P36544 23-502) above
T2 sequence (P36544 23-502 limits assumed): as the sequence (P36544 23-502) above
T2 sequence (P17787 26-502 limits assumed): as the sequence (P17787 26-502 K104T/F144Q) above, with T79K, Q119F counted along it
T1 sequence (P36544 23-502 limits assumed): as the sequence (P36544 23-502) above
T10 sequence (P36544 23-502): as above
T10 sequence (P17787 26-502 S133T/V136L/W145Y): as the sequence (P17787 26-502 K104T/F144Q) above, with T79K, S108T, V111L, Q119F, W120Y counted along it
T9 sequence (P36544 23-502): as the sequence (P36544 23-502) above
T9 sequence (P17787 26-502 K104T/F144Q): as the sequence (P17787 26-502 K104T/F144Q) above
T3 sequence (P30926 22-498): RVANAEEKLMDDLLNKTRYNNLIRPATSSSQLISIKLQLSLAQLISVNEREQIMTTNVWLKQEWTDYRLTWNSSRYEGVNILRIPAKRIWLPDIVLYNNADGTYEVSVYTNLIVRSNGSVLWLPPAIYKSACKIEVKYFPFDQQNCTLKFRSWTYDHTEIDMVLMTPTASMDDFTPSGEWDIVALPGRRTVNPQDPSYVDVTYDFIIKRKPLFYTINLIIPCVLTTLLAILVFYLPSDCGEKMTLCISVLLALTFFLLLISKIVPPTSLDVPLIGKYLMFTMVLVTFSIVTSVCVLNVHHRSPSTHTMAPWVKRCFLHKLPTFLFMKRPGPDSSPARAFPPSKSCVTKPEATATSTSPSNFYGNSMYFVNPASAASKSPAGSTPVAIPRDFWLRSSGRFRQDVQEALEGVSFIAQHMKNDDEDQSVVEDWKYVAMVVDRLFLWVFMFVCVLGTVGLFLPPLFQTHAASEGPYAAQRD
T3 sequence (P32297 32-505): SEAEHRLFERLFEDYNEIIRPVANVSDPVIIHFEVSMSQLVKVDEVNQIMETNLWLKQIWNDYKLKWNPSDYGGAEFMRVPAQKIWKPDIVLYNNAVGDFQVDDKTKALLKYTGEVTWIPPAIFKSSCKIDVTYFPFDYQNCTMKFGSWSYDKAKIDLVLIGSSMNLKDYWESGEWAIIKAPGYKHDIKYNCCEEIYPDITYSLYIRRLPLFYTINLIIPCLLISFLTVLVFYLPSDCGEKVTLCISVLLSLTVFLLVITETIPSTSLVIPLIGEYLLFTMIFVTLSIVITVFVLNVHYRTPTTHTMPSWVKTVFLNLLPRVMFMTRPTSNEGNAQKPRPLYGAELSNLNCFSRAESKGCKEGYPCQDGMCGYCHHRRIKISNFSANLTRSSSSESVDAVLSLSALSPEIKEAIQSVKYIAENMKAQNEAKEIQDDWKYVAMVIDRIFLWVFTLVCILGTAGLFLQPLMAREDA
T8 sequence (Q9UGM1 26-479 limits assumed): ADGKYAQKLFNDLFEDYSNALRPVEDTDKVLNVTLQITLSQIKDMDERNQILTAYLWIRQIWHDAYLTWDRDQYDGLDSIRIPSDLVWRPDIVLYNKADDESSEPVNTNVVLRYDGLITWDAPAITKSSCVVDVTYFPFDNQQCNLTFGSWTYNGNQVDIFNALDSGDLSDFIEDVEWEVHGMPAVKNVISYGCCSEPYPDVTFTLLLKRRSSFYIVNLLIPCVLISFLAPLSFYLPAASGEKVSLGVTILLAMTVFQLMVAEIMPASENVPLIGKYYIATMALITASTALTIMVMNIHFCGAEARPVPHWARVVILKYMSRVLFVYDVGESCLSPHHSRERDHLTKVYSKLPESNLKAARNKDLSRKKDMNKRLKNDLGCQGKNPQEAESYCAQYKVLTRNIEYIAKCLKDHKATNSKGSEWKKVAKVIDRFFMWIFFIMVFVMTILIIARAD
T8 sequence (Q9GZZ6 25-450): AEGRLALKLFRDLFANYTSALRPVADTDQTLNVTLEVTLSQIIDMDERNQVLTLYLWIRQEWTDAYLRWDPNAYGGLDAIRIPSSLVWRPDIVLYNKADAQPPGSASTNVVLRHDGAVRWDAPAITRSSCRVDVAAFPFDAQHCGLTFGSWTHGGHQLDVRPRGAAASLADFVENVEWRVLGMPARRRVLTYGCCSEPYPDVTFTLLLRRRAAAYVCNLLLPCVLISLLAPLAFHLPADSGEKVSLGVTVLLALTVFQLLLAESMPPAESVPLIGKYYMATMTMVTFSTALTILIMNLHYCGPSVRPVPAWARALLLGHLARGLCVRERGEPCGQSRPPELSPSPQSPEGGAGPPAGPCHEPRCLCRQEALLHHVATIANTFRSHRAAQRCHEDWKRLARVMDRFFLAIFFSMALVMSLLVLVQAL
T6 sequence (P17787 26-502): as the sequence (P17787 26-502 K104T/F144Q) above, with T79K, Q119F counted along it
T6 sequence (Q15825+P32297 fused with the stated changes): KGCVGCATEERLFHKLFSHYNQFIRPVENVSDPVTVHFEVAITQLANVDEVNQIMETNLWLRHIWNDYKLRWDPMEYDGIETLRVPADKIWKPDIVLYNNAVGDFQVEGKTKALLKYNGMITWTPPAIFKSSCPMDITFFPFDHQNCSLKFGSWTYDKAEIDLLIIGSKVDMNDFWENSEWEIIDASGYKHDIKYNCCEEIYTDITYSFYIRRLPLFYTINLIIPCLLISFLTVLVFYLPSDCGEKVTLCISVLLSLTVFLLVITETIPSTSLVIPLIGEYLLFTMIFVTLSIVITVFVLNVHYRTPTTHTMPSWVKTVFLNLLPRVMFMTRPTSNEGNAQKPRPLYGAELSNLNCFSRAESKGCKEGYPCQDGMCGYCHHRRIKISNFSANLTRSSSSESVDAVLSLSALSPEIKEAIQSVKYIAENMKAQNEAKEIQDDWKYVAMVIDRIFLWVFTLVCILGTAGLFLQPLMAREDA
T6 sequence (Q05901 25-458): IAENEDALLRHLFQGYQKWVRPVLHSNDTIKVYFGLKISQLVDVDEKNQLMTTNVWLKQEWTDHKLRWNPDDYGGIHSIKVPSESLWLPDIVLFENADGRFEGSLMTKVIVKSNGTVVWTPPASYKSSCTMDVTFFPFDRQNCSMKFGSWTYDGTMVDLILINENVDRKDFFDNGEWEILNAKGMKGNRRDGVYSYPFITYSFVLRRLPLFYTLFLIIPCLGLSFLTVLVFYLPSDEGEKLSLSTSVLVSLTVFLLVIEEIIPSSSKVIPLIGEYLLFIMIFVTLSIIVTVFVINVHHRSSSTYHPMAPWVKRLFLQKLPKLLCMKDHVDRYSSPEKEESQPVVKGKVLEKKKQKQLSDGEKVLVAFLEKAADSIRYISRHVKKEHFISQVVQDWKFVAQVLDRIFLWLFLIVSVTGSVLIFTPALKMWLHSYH
T7 sequence (P17787 26-502): as the sequence (P17787 26-502 K104T/F144Q) above, with T79K, Q119F counted along it
T7 sequence (P32297 32-505): as the sequence (P32297 32-505) above

One may read the Kd as the concentration at which binding is half-saturated. The low end stands for a tighter complex, the high end for a looser complex. Consider `CC(C)C[C@@H]1NC(=O)[C@H](Cc2ccccc2)NC(=O)[C@@H]2CSSC[C@H](NC(=O)CN)C(=O)N[C@@H](CSSC[C@@H](C(N)=O)NC(=O)[C@H](Cc3ccc(O)cc3)NC(=O)[C@H](CC(=O)O)NC(=O)[C@@H]3CCCN3C(=O)[C@H](Cc3c[nH]cn3)NC(=O)[C@H](CC(N)=O)NC1=O)C(=O)N[C@@H](CO)C(=O)N[C@@H](Cc1c[nH]cn1)C(=O)N1CCC[C@H]1C(=O)N1CCC[C@H]1C(=O)N2` [[N12H]], for which the Kd turned out to be 81 ± 19 nM on human α7‐only‐nAChR and 13 ± 2 nM on human α7β2‐nAChR (K d α7β2, SEM). The koff was 0.0011 s⁻¹ at human α7‐only‐nAChR and 0.000308 s⁻¹ at human α7β2‐nAChR (read-out: k off α7β2, SEM). Besides, the kon is 18300 M⁻¹ s⁻¹ at human α7‐only‐nAChR and 24500 M⁻¹ s⁻¹ at human α7β2‐nAChR (read-out: k on α7β2, SEM).

For `CC(C)C[C@@H]1NC(=O)[C@H](CC(C)C)NC(=O)[C@@H]2CSSC[C@H](NC(=O)CN)C(=O)N[C@@H](CSSC[C@@H](C(N)=O)NC(=O)[C@H](Cc3ccc(O)cc3)NC(=O)[C@H](CC(=O)O)NC(=O)[C@@H]3CCCN3C(=O)[C@H](CC(N)=O)NC(=O)[C@H](CC(N)=O)NC1=O)C(=O)N[C@@H](CO)C(=O)N[C@@H](Cc1c[nH]cn1)C(=O)N1CCC[C@H]1C(=O)N1CCC[C@H]1C(=O)N2` [[F9L]], the Kd on human α7‐only‐nAChR came out at 20 ± 3 nM; on human α7β2‐nAChR (K d α7β2, SEM), 15 ± 2 nM. Further, the koff at human α7‐only‐nAChR is 0.000637 s⁻¹; at human α7β2‐nAChR (read-out: k off α7β2, SEM), 0.000292 s⁻¹. The kon was 32800 M⁻¹ s⁻¹ on human α7‐only‐nAChR and 20500 M⁻¹ s⁻¹ on human α7β2‐nAChR (read-out: k on α7β2, SEM). Further, on α3β4‐nAChR, the “block of ACh‐induced function, α3β4‐nAChR” value is on record as > 90%.

On to `CC(C)C[C@@H]1NC(=O)[C@H](Cc2ccccc2)NC(=O)[C@@H]2CSSC[C@H](NC(=O)CN)C(=O)N[C@@H](CSSC[C@@H](C(N)=O)NC(=O)[C@H](Cc3ccc(O)cc3)NC(=O)[C@H](CC(=O)O)NC(=O)[C@@H]3CCCN3C(=O)[C@H](CC(N)=O)NC(=O)[C@H](CC(N)=O)NC1=O)C(=O)N[C@@H](CCCNC(=N)N)C(=O)N[C@@H](Cc1c[nH]cn1)C(=O)N1CCC[C@H]1C(=O)N1CCC[C@H]1C(=O)N2` [[S4R]], for which the Kd turned out to be 6.74 ± 2.67 nM in assay [1]; 15 ± 6 nM at human α7‐only‐nAChR; 0.83 ± 0.05 nM on human α7β2‐nAChR (K d α7β2, SEM); 1.9 ± 0.21 nM on human α7β2‐nAChR (K d, Unaltered α7β2‐nAChR, SEM); 5.31 ± 1.04 nM in [2]. Also, the koff in assay [1] was 0.000255 s⁻¹; on human α7‐only‐nAChR it was 0.000597 s⁻¹; at human α7β2‐nAChR (read-out: k off α7β2, SEM), 9.33e-05 s⁻¹; on human α7β2‐nAChR (setting [5]) it was 0.000124 s⁻¹; in assay [2], 0.000232 s⁻¹. The kon in [1] is 64300 M⁻¹ s⁻¹; at human α7‐only‐nAChR, 56700 M⁻¹ s⁻¹; at human α7β2‐nAChR (read-out: k on α7β2, SEM), 112000 M⁻¹ s⁻¹; at human α7β2‐nAChR (setting [6]), 67500 M⁻¹ s⁻¹; in assay [2], 45500 M⁻¹ s⁻¹.

On to `CC(C)C[C@@H]1NC(=O)[C@H](Cc2ccccc2)NC(=O)[C@@H]2CSSC[C@H](NC(=O)CN)C(=O)N[C@@H](CSSC[C@@H](C(N)=O)NC(=O)[C@H](Cc3ccc(O)cc3)NC(=O)[C@H](CCC(=O)O)NC(=O)[C@@H]3CCCN3C(=O)[C@H](CC(N)=O)NC(=O)[C@H](CC(N)=O)NC1=O)C(=O)N[C@@H](CO)C(=O)N[C@@H](Cc1c[nH]cn1)C(=O)N1CCC[C@H]1C(=O)N1CCC[C@H]1C(=O)N2` [[D14E]], for which the Kd at human α7‐only‐nAChR was determined as 2 ± 0.6 nM; on human α7β2‐nAChR (K d α7β2, SEM), 1.4 ± 0.3 nM. For the same compound, the koff was 0.000111 s⁻¹ on human α7‐only‐nAChR and 6e-05 s⁻¹ on human α7β2‐nAChR (read-out: k off α7β2, SEM). Besides, the kon on human α7‐only‐nAChR was 57500 M⁻¹ s⁻¹; on human α7β2‐nAChR (read-out: k on α7β2, SEM), 49500 M⁻¹ s⁻¹.

Take `CC(C)C[C@@H]1NC(=O)[C@H](Cc2ccccc2)NC(=O)[C@@H]2CSSC[C@H](NC(=O)CN)C(=O)N[C@@H](CSSC[C@@H](C(N)=O)NC(=O)[C@H](CC(=O)O)NC(=O)[C@H](CC(=O)O)NC(=O)[C@@H]3CCCN3C(=O)[C@H](CC(N)=O)NC(=O)[C@H](CC(N)=O)NC1=O)C(=O)N[C@@H](CO)C(=O)N[C@@H](Cc1c[nH]cn1)C(=O)N1CCC[C@H]1C(=O)N1CCC[C@H]1C(=O)N2` [[Y15D]]: the Kd is 27 ± 3 nM on human α7‐only‐nAChR and 9.9 ± 2.1 nM at human α7β2‐nAChR (K d α7β2, SEM). Further, the koff is 0.00112 s⁻¹ at human α7‐only‐nAChR and 0.000298 s⁻¹ at human α7β2‐nAChR (read-out: k off α7β2, SEM). The kon at human α7‐only‐nAChR was 54800 M⁻¹ s⁻¹; on human α7β2‐nAChR (read-out: k on α7β2, SEM), 43300 M⁻¹ s⁻¹. Further, on α6/3β2β3‐nAChR, the “block of ACh‐induced function, α6/3β2β3‐nAChR” value is “≈ 35%”. For the same compound, the “block of ACh‐induced function, α3β2‐nAChR” value at α3β2‐nAChR is “≈ 50%”.

Broadly, the IC50 is the point on the concentration scale where inhibition reaches its midpoint. Take `NCC(=O)N[C@H]1CSSC[C@@H]2NC(=O)[C@@H]3CCCN3C(=O)[C@@H]3CCCN3C(=O)[C@H](Cc3c[nH]cn3)NC(=O)[C@H](CO)NC(=O)[C@H](CSSC[C@@H](C(N)=O)NC(=O)[C@H](Cc3ccc(O)cc3)NC(=O)[C@H](CC(=O)O)NC(=O)[C@@H]3CCCN3C(=O)[C@H](CC(N)=O)NC(=O)[C@H](CC(N)=O)NC(=O)[C@H](Cc3ccc(O)cc3)NC(=O)[C@H](Cc3ccccc3)NC2=O)NC1=O` [[L10Y]]: the Kd in [1] is 28 ± 4 nM; at human α7‐only‐nAChR, 671 ± 136 nM; at human α7β2‐nAChR (K d α7β2), 1 to 2 nM; on human α7β2‐nAChR (K d α7β2, SEM), 12 ± 3 nM; on human α7β2‐nAChR (K d, Unaltered α7β2‐nAChR, SEM) it was 20 ± 4 nM; in assay [2] it was 24 ± 3 nM. The koff in [1] is 0.00064 s⁻¹; on human α7‐only‐nAChR, 0.0044 s⁻¹; on human α7β2‐nAChR (read-out: k off α7β2, SEM), 0.000462 s⁻¹; on human α7β2‐nAChR (setting [5]), 0.000508 s⁻¹; in assay [2], 0.000537 s⁻¹. The kon was 24000 M⁻¹ s⁻¹ in assay [1]; 6670 M⁻¹ s⁻¹ on human α7‐only‐nAChR; 50200 M⁻¹ s⁻¹ at human α7β2‐nAChR (read-out: k on α7β2, SEM); 30700 M⁻¹ s⁻¹ at human α7β2‐nAChR (setting [6]); 21700 M⁻¹ s⁻¹ in assay [2]. Also, the IC50 against α9α10‐nAChR was > 300 nM.

Consider `CC(=O)OCC[N+](C)(C)C` [ACh, acetylcholine], for which the “Imax, maximum function induced by ACh, outer pocket α7β2‐nAChR” value in assay [3] (setting [7]) stood at 1401 ± 137 nA. In addition, the “hillslope (nH), outer pocket α7β2‐nAChR” value in assay [3] (logistic fit per oocyte) stood at 1.17 ± 0.12. The “Imax, maximum function induced by ACh, inner pocket α7β2‐nAChR” value in assay [4] (setting [7]) turned out to be 1539 ± 193 nA. Besides, in [4] (logistic fit per oocyte), the “hillslope (nH), inner pocket α7β2‐nAChR” value is reported as 0.93 ± 0.06.
